Measured values reported in article PMC5218480 (PLoS ONE, 2017).

System: MV-4-11 cells
Assay: Gene expression microarray analysis (Affymetrix PrimeView) and GSEA
Type: cell-based, human
Set-up: RFU PODN (11730768_x_at) / Fold change /veh PODN (11730768_x_at) / RFU LINC00158 (11744669_a_at) / Fold change /veh LINC00158 (11744669_a_at) / RFU DUSP10 (11751237_a_at) / Fold change /veh DUSP10 (11751237_a_at) / RFU ID3 (11757404_x_at) / Fold change /veh ID3 (11757404_x_at) / RFU PLEKHG5 (11737974_s_at) / Fold change /veh PLEKHG5 (11737974_s_at) / RFU LRRC4B (11730491_at) / Fold change /veh LRRC4B (11730491_at) / RFU GIMAP4 (11747438_a_at) / Fold change /veh GIMAP4 (11747438_a_at) / RFU KRT8 (11758183_x_at) / Fold change /veh KRT8 (11758183_x_at) / RFU CNN1 (11734310_a_at) / Fold change /veh CNN1 (11734310_a_at) / RFU VPS37D (11726825_at) / Fold change /veh VPS37D (11726825_at) / RFU C10orf10 (11716522_x_at) / Fold change /veh C10orf10 (11716522_x_at) / RFU KIR2DL2 /// KIR2DL4 /// KIR2DL5A /// KIR2DL5B /// KIR2DS1 /// KIR2DS2 /// KIR2DS3 /// KIR2DS4 /// KIR3DL3 /// KIR3DL3 /// KIR3DS1 (11738374_at) / Fold change /veh KIR2DL2 /// KIR2DL4 /// KIR2DL5A /// KIR2DL5B /// KIR2DS1 /// KIR2DS2 /// KIR2DS3 /// KIR2DS4 /// KIR3DL3 /// KIR3DL3 /// KIR3DS1 (11738374_at) / RFU C1QL1 (11718748_at) / Fold change /veh C1QL1 (11718748_at) / RFU TMPRSS4 (11747572_a_at) / Fold change /veh TMPRSS4 (11747572_a_at) / RFU HAMP (11756126_x_at) / Fold change /veh HAMP (11756126_x_at) / RFU RNFT2 (11725882_a_at) / Fold change /veh RNFT2 (11725882_a_at) / RFU NR4A2 (11747474_a_at) / Fold change /veh NR4A2 (11747474_a_at) / RFU ABCC12 (11746883_a_at) / Fold change /veh ABCC12 (11746883_a_at) / RFU TMEM136 (11760407_x_at) / Fold change /veh TMEM136 (11760407_x_at) / RFU CLDN22 /// WWC2 (11732394_at) / Fold change /veh CLDN22 /// WWC2 (11732394_at) / RFU HLA-DPB1 (11760878_x_at) / Fold change /veh HLA-DPB1 (11760878_x_at) / RFU SPINT1 (11716480_a_at) / Fold change /veh SPINT1 (11716480_a_at) / RFU GAP43 (11754022_s_at) / Fold change /veh GAP43 (11754022_s_at) / RFU A4GNT (11735810_at) / Fold change /veh A4GNT (11735810_at) / RFU PRB3 (11715151_x_at) / Fold change /veh PRB3 (11715151_x_at) / RFU TUBB4B (11761932_at) / Fold change /veh TUBB4B (11761932_at) / RFU CAPN14 (11732068_a_at) / Fold change /veh CAPN14 (11732068_a_at) / RFU TMCC2 (11721928_a_at) / Fold change /veh TMCC2 (11721928_a_at) / RFU IRGQ (11745062_a_at) / Fold change /veh IRGQ (11745062_a_at) / RFU FAM174B (11720279_a_at) / Fold change /veh FAM174B (11720279_a_at) / RFU TMPRSS4 (11748680_a_at) / Fold change /veh TMPRSS4 (11748680_a_at) / RFU FAM212B (11763350_a_at) / Fold change /veh FAM212B (11763350_a_at) / RFU PLEKHG5 (11743358_a_at) / Fold change /veh PLEKHG5 (11743358_a_at) / RFU ZSCAN30 (11745921_a_at) / Fold change /veh ZSCAN30 (11745921_a_at) / RFU CMKLR1 (11741424_a_at) / Fold change /veh CMKLR1 (11741424_a_at) / RFU LOC101060620 /// MAPK8IP1 (11723275_at) / Fold change /veh LOC101060620 /// MAPK8IP1 (11723275_at) / RFU SPTSSB (11747773_x_at) / Fold change /veh SPTSSB (11747773_x_at) / RFU PRSS12 (11739890_at) / Fold change /veh PRSS12 (11739890_at) / RFU BIN1 (11741810_x_at) / Fold change /veh BIN1 (11741810_x_at) / RFU WNT11 (11732464_a_at) / Fold change /veh WNT11 (11732464_a_at) / RFU C10orf10 (11716521_a_at) / Fold change /veh C10orf10 (11716521_a_at) / RFU C5orf56 (11738089_at) / Fold change /veh C5orf56 (11738089_at) / RFU CYB561 (11721691_x_at) / Fold change /veh CYB561 (11721691_x_at) / RFU ANKRD19P (11752326_a_at) / Fold change /veh ANKRD19P (11752326_a_at) / RFU OR2T12 /// OR2T33 /// OR2T8 (11738714_s_at) / Fold change /veh OR2T12 /// OR2T33 /// OR2T8 (11738714_s_at) / RFU VCAN (11748164_a_at) / Fold change /veh VCAN (11748164_a_at) / RFU JSRP1 (11732532_at) / Fold change /veh JSRP1 (11732532_at) / RFU KRTAP10-11 (11738290_x_at) / Fold change /veh KRTAP10-11 (11738290_x_at) / RFU MYO3A (11730013_a_at) / Fold change /veh MYO3A (11730013_a_at) / RFU EBF3 (11725865_a_at) / Fold change /veh EBF3 (11725865_a_at) / RFU CAMK2N1 (11719241_x_at) / Fold change /veh CAMK2N1 (11719241_x_at) / RFU C5orf56 (11738088_a_at) / Fold change /veh C5orf56 (11738088_a_at) / RFU OLFML3 (11715873_a_at) / Fold change /veh OLFML3 (11715873_a_at) / RFU LOC100653217 /// NTM (11731650_a_at) / Fold change /veh LOC100653217 /// NTM (11731650_a_at) / RFU MAPK11 (11762145_a_at) / Fold change /veh MAPK11 (11762145_a_at) / RFU FIZ1 (11724087_x_at) / Fold change /veh FIZ1 (11724087_x_at) / RFU OASL (11726364_x_at) / Fold change /veh OASL (11726364_x_at) / RFU SOX15 (11748057_x_at) / Fold change /veh SOX15 (11748057_x_at) / RFU CD79A (11719716_a_at) / Fold change /veh CD79A (11719716_a_at) / RFU HIST1H1D (11736915_at) / Fold change /veh HIST1H1D (11736915_at) / RFU CASKIN2 (11723855_a_at) / Fold change /veh CASKIN2 (11723855_a_at) / RFU LOC730098 (11760151_x_at) / Fold change /veh LOC730098 (11760151_x_at) / RFU OR4N2 (11742367_at) / Fold change /veh OR4N2 (11742367_at) / RFU PRRT2 (11749266_a_at) / Fold change /veh PRRT2 (11749266_a_at) / RFU SNX32 (11753110_a_at) / Fold change /veh SNX32 (11753110_a_at) / RFU CDHR5 (11726645_a_at) / Fold change /veh CDHR5 (11726645_a_at) / RFU RCAN1 (11760418_a_at) / Fold change /veh RCAN1 (11760418_a_at) / RFU FAM167A (11723789_a_at) / Fold change /veh FAM167A (11723789_a_at) / RFU FAM26E (11764081_at) / Fold change /veh FAM26E (11764081_at) / RFU ISYNA1 (11749810_s_at) / Fold change /veh ISYNA1 (11749810_s_at) / RFU ACY1 (11761880_at) / Fold change /veh ACY1 (11761880_at) / RFU 11764098_at / Fold change /veh 11764098_at / RFU SAMD14 (11745864_x_at) / Fold change /veh SAMD14 (11745864_x_at) / RFU NPB (11741838_a_at) / Fold change /veh NPB (11741838_a_at) / RFU TMPRSS6 (11731388_a_at) / Fold change /veh TMPRSS6 (11731388_a_at) / RFU KRTAP10-2 (11738614_at) / Fold change /veh KRTAP10-2 (11738614_at) / RFU ARHGAP8 /// PRR5-ARHGAP8 (11727945_x_at) / Fold change /veh ARHGAP8 /// PRR5-ARHGAP8 (11727945_x_at) / RFU KRTAP5-7 /// NADSYN1 (11734609_at) / Fold change /veh KRTAP5-7 /// NADSYN1 (11734609_at) / RFU RASL12 (11751679_a_at) / Fold change /veh RASL12 (11751679_a_at) / RFU CDKN2B (11736163_a_at) / Fold change /veh CDKN2B (11736163_a_at) / RFU PRF1 (11729649_at) / Fold change /veh PRF1 (11729649_at) / RFU, ZNF638 /// ZNF638-IT1 / Fold change vs veh, ZNF638 /// ZNF638-IT1 / RFU, PANK3 / Fold change vs veh, PANK3 / RFU, SH3YL1 / Fold change vs veh, SH3YL1 / RFU, ZEB2 / Fold change vs veh, ZEB2 / RFU, NRIP1 / Fold change vs veh, NRIP1 / RFU, PTTG1IP / Fold change vs veh, PTTG1IP / RFU, CAPN2 / Fold change vs veh, CAPN2 / RFU, MED14 / Fold change vs veh, MED14 / RFU, SNORA58 / Fold change vs veh, SNORA58 / RFU, C1orf63 / Fold change vs veh, C1orf63 / RFU, LRRFIP1 / Fold change vs veh, LRRFIP1 / RFU, NDUFAF7 / Fold change vs veh, NDUFAF7 / RFU, SLC12A2 / Fold change vs veh, SLC12A2 / RFU, IBTK / Fold change vs veh, IBTK / RFU, ESF1 / Fold change vs veh, ESF1 / Fold change vs veh, TMEM50B / RFU, TAOK1 / Fold change vs veh, TAOK1 / RFU, ACBD3 / Fold change vs veh, ACBD3 / RFU, TMA16 / Fold change vs veh, TMA16 / RFU, RWDD3 / Fold change vs veh, RWDD3 / RFU, BCAT1 / Fold change vs veh, BCAT1 / RFU, EDEM3 / Fold change vs veh, EDEM3 / RFU, TMEM33 / Fold change vs veh, TMEM33 / RFU, WDR75 / Fold change vs veh, WDR75 / RFU, AHCTF1 / Fold change vs veh, AHCTF1 / RFU, TFRC / Fold change vs veh, TFRC / RFU, ZDHHC17 / Fold change vs veh, ZDHHC17 / RFU, NOM1 / Fold change vs veh, NOM1 / RFU, ARL8B / Fold change vs veh, ARL8B / RFU, ZBTB11 / Fold change vs veh, ZBTB11 / RFU, TAMM41 / Fold change vs veh, TAMM41 / RFU, KIAA1704 /// LOC100996395 / Fold change vs veh, KIAA1704 /// LOC100996395 / RFU, ING1 / Fold change vs veh, ING1 / RFU, TRMT61B / Fold change vs veh, TRMT61B / RFU, FUBP3 / Fold change vs veh, FUBP3 / RFU, TP53 / Fold change vs veh, TP53 / RFU, TNKS2 / Fold change vs veh, TNKS2 / RFU, ZFP14 / Fold change vs veh, ZFP14 / RFU, ACTR2 / Fold change vs veh, ACTR2 / RFU, PPP3R1 / Fold change vs veh, PPP3R1 / RFU, PIK3R1 / Fold change vs veh, PIK3R1 / RFU, HNRNPA1 / Fold change vs veh, HNRNPA1 / RFU, RNF170 / Fold change vs veh, RNF170 / RFU, ZNF28 / Fold change vs veh, ZNF28 / RFU, RNGTT / Fold change vs veh, RNGTT / RFU, OGT / Fold change vs veh, OGT / RFU, BRD1 / Fold change vs veh, BRD1 / RFU, MARS / Fold change vs veh, MARS / RFU, ZNF655 / Fold change vs veh, ZNF655 / RFU, FAHD1 / Fold change vs veh, FAHD1 / RFU, BDP1 / Fold change vs veh, BDP1 / RFU, LRRCC1 / Fold change vs veh, LRRCC1 / RFU, ARID1A / Fold change vs veh, ARID1A / RFU, ZNF146 / Fold change vs veh, ZNF146 / RFU, ZNF330 / Fold change vs veh, ZNF330 / RFU, GPN3 / Fold change vs veh, GPN3 / RFU, C9orf123 / Fold change vs veh, C9orf123 / RFU, N4BP2L2 / Fold change vs veh, N4BP2L2 / RFU, ARFIP1 / Fold change vs veh, ARFIP1 / RFU, FAM179B / Fold change vs veh, FAM179B / RFU, BCL10 / Fold change vs veh, BCL10 / RFU, UHRF1BP1L / Fold change vs veh, UHRF1BP1L / RFU, BET1 / Fold change vs veh, BET1 / RFU, CNOT2 / Fold change vs veh, CNOT2 / RFU, ZNF268 / Fold change vs veh, ZNF268 / Fold change vs veh, ZNF507 / RFU, DGCR2 / Fold change vs veh, DGCR2 / RFU, WDSUB1 / Fold change vs veh, WDSUB1 / Fold change vs veh, HSP90B1 /// MIR3652 / RFU, ADSS / Fold change vs veh, ADSS / RFU, GK / Fold change vs veh, GK / RFU, ZNF148 / Fold change vs veh, ZNF148 / RFU, TAF9 / Fold change vs veh, TAF9 / RFU, SLC1A5 / Fold change vs veh, SLC1A5 / RFU, SLMO2 / Fold change vs veh, SLMO2 / RFU, ABCC4 / Fold change vs veh, ABCC4 / RFU, LOC101060439 /// RAP1B / Fold change vs veh, LOC101060439 /// RAP1B / RFU, RFX7 / Fold change vs veh, RFX7 / RFU, GTPBP10 / Fold change vs veh, GTPBP10 / RFU, CNEP1R1 / Fold change vs veh, CNEP1R1 / RFU, BIVM-ERCC5 /// ERCC5 / Fold change vs veh, BIVM-ERCC5 /// ERCC5 / RFU, ILF3 / Fold change vs veh, ILF3 / RFU 11762660_at / Fold change /veh 11762660_at / RFU VCAN (11757783_s_at) / Fold change /veh VCAN (11757783_s_at) / RFU DDX43 (11728927_at) / Fold change /veh DDX43 (11728927_at) / RFU KRT8 (11758188_x_at) / Fold change /veh KRT8 (11758188_x_at) / RFU NKD1 (11759106_at) / Fold change /veh NKD1 (11759106_at) / RFU SRD5A1 (11742802_a_at) / Fold change /veh SRD5A1 (11742802_a_at) / RFU TPSAB1 /// TPSB2 (11721975_s_at) / Fold change /veh TPSAB1 /// TPSB2 (11721975_s_at) / RFU GSTM3 (11746129_a_at) / Fold change /veh GSTM3 (11746129_a_at) / RFU IL23R (11737362_x_at) / Fold change /veh IL23R (11737362_x_at) / RFU TMEM51 (11727254_a_at) / Fold change /veh TMEM51 (11727254_a_at) / RFU PIWIL2 (11732686_x_at) / Fold change /veh PIWIL2 (11732686_x_at) / RFU ORM1 (11744905_x_at) / Fold change /veh ORM1 (11744905_x_at) / RFU CCDC152 (11743942_at) / Fold change /veh CCDC152 (11743942_at) / RFU ECM1 (11717891_a_at) / Fold change /veh ECM1 (11717891_a_at) / RFU IL23R (11748794_a_at) / Fold change /veh IL23R (11748794_a_at) / RFU TNFAIP8L3 (11732012_x_at) / Fold change /veh TNFAIP8L3 (11732012_x_at) / RFU MBOAT4 (11741988_at) / Fold change /veh MBOAT4 (11741988_at) / RFU 11764193_at / Fold change /veh 11764193_at / RFU TMEM53 (11763286_at) / Fold change /veh TMEM53 (11763286_at) / RFU MAGEB2 (11727129_at) / Fold change /veh MAGEB2 (11727129_at) / RFU TMEM200A (11744735_a_at) / Fold change /veh TMEM200A (11744735_a_at) / RFU CCDC152 (11751479_a_at) / Fold change /veh CCDC152 (11751479_a_at) / RFU FAM211A (11726209_a_at) / Fold change /veh FAM211A (11726209_a_at) / RFU RGS16 (11746705_a_at) / Fold change /veh RGS16 (11746705_a_at) / RFU VCAN (11755009_s_at) / Fold change /veh VCAN (11755009_s_at) / RFU RHOB (11743442_s_at) / Fold change /veh RHOB (11743442_s_at) / RFU RGS16 (11720943_a_at) / Fold change /veh RGS16 (11720943_a_at) / RFU RGS16 (11720944_at) / Fold change /veh RGS16 (11720944_at) / RFU, VPS4B / Fold change vs veh, VPS4B / RFU, CREB1 / Fold change vs veh, CREB1 / RFU, DNAJC13 / Fold change vs veh, DNAJC13 / RFU, GNAQ / Fold change vs veh, GNAQ / RFU, CDK5R1 / Fold change vs veh, CDK5R1 / RFU, ZRANB3 / Fold change vs veh, ZRANB3 / RFU, CUL4A / Fold change vs veh, CUL4A / RFU, CCNY / Fold change vs veh, CCNY / RFU, UFL1 / Fold change vs veh, UFL1 / RFU, COG3 / Fold change vs veh, COG3 / RFU, DIAPH2 / Fold change vs veh, DIAPH2 / RFU, SKA2 / Fold change vs veh, SKA2 / RFU, AFF3 / Fold change vs veh, AFF3 / RFU, LMF1 / Fold change vs veh, LMF1 / RFU, IPO11 / Fold change vs veh, IPO11 / RFU, DFFB / Fold change vs veh, DFFB / RFU, FOXP1 / Fold change vs veh, FOXP1 / RFU, CARD8 / Fold change vs veh, CARD8 / RFU, STRN3 / Fold change vs veh, STRN3 / RFU, ADK / Fold change vs veh, ADK / RFU, RASSF2 / Fold change vs veh, RASSF2 / RFU, WIPF1 / Fold change vs veh, WIPF1 / RFU, LARP1B / Fold change vs veh, LARP1B / RFU, RASA1 / Fold change vs veh, RASA1 / RFU, RB1 / Fold change vs veh, RB1 / RFU, PPFIA1 / Fold change vs veh, PPFIA1 / RFU, MAT2A / Fold change vs veh, MAT2A / RFU, CCT5 / Fold change vs veh, CCT5 / RFU, WDR92 / Fold change vs veh, WDR92 / RFU, CUX1 / Fold change vs veh, CUX1 / RFU, TTC7A / Fold change vs veh, TTC7A / RFU, TMEM135 / Fold change vs veh, TMEM135 / RFU, DEPTOR / Fold change vs veh, DEPTOR / RFU, CPM / Fold change vs veh, CPM / RFU, DNAJB6 / Fold change vs veh, DNAJB6 / RFU, CACNA2D3 / Fold change vs veh, CACNA2D3 / RFU, DTX4 / Fold change vs veh, DTX4 / RFU, TFCP2 / Fold change vs veh, TFCP2 / RFU, GMCL1 /// GMCL1P1 / Fold change vs veh, GMCL1 /// GMCL1P1 / RFU, AEBP2 / Fold change vs veh, AEBP2 / RFU, SNHG1 /// SNORD22 /// SNORD25 /// SNORD26 /// SNORD27 /// SNORD28 /// SNORD29 /// SNORD31 / Fold change vs veh, SNHG1 /// SNORD22 /// SNORD25 /// SNORD26 /// SNORD27 /// SNORD28 /// SNORD29 /// SNORD31 / Fold change (Aza/veh), C12orf56 (ProbeSet 11735607_a_at) / Fold change (ACY-1035/veh), C12orf56 (ProbeSet 11735607_a_at) / Fold change (Aza/veh), FGFR1OP (ProbeSet 11751329_s_at) / Fold change (ACY-1035/veh), FGFR1OP (ProbeSet 11751329_s_at) / Fold change (Aza/veh), VPS36 (ProbeSet 11739960_a_at) / Fold change (ACY-1035/veh), VPS36 (ProbeSet 11739960_a_at) / RFU SYPL1 (11715823_x_at) / Fold change /veh SYPL1 (11715823_x_at) / RFU IGFBP7 (11715501_s_at) / Fold change /veh IGFBP7 (11715501_s_at) / RFU REEP3 (11722064_at) / Fold change /veh REEP3 (11722064_at) / RFU IGLL1 (11728026_x_at) / Fold change /veh IGLL1 (11728026_x_at): dose or concentration left out as unconfirmed
Conditions: ProbeSet 11728676_at; LIST B

Nc1ccc(-c2cccs2)cc1NC(=O)c1ccc2c(c1)cc(C1CC1)n2CCN1CCOCC1 [ACY-1035]
Fold change vs veh, MED14: 0.95
